Reference: patent US11365192B2, “Pyridine compound substituted with azole” (TAISHO PHARMACEUTICAL CO., LTD., priority 2017, dated 2022)

Experiments:
human CYP4A11 = human CYP4A11 (Homo sapiens (Human), UniProt Q02928); assay: Inhibition test against 20-HETE producing enzyme CYP4A11 (luciferine derivative, luminescence); type: biochemical
Procedure: (§1) (1) Inhibition Test for Each Compound of the Present Invention Against 20-HETE Producing Enzymes (CYP4F2 and CYP4A11)
(§2) In the CYP4F2 inhibition test, the reaction solution containing each compound [final concentration of 50 mM, KPO4 (pH 7.4), 2.5 μM luciferine derivative, and 1 mM NADPH] was added to an Escherichia coli membrane fraction (100 μg/mL protein) in which human CYP4F2 had been expressed. In the CYP4A11 inhibition test, the reaction solution containing each compound [final concentration of 100 mM, Tris-HCl (pH 7.5), 60 μM luciferine derivative, 1.3 mM NADP^+, 3.3 mM Glucose 6-Phosphate, 3.3 mM MgCl2, and 0.4 U/mL Glucose 6-Phosphate dehydrogenase] was added to an Escherichia coli membrane fraction (100 μg/mL protein) in which human CYP4A11 had been expressed. Following this, the membrane fraction was left to stand at room temperature for 60 minutes to perform an enzymatic reaction. After the reaction, a luciferine detection reagent was added, and the luminescence value was measured using a plate reader. By using that value, the percent inhibition of 20-HETE producing enzyme (%) was calculated according to the equation described below, and the 50% inhibitory concentration (IC50 value) for each compound was calculated. Percent inhibition of 20-HETE producing enzyme (%)=[1−(A−B)/(C−B)]*100
(§3) A: Luminescence value with addition of compound
(§4) B: Luminescence value without addition of compound and enzyme

human CYP4F2 = human CYP4F2 (Homo sapiens (Human), UniProt P78329); assay: Inhibition test against 20-HETE producing enzyme CYP4F2 (luciferine derivative, luminescence); type: biochemical
Procedure: as §1, §2, §3, §4

[1] = human CYP4A11, luciferine derivative, luminescence
[2] = human CYP4F2, luciferine derivative, luminescence
[3] = E. coli membrane fraction expressing human CYP4A11, 60 μM luciferine derivative, room temperature 60 minutes
[4] = E. coli membrane fraction expressing human CYP4F2, 2.5 μM luciferine derivative, room temperature 60 minutes

Sequence of human CYP4A11 (Q02928 5-519): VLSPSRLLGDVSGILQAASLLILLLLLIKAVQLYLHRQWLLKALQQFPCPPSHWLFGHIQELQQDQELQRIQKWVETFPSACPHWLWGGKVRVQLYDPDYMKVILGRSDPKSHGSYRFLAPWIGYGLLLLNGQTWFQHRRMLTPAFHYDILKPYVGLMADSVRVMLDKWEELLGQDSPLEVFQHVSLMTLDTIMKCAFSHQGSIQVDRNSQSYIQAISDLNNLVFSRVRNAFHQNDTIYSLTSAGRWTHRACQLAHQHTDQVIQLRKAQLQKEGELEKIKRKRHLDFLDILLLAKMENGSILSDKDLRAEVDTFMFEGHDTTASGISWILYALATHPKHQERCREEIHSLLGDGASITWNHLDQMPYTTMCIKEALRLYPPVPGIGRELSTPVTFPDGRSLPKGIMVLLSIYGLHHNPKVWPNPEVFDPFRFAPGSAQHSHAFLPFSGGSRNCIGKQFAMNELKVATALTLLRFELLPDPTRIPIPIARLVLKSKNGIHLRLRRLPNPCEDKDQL
Sequence of human CYP4F2 (P78329 5-520): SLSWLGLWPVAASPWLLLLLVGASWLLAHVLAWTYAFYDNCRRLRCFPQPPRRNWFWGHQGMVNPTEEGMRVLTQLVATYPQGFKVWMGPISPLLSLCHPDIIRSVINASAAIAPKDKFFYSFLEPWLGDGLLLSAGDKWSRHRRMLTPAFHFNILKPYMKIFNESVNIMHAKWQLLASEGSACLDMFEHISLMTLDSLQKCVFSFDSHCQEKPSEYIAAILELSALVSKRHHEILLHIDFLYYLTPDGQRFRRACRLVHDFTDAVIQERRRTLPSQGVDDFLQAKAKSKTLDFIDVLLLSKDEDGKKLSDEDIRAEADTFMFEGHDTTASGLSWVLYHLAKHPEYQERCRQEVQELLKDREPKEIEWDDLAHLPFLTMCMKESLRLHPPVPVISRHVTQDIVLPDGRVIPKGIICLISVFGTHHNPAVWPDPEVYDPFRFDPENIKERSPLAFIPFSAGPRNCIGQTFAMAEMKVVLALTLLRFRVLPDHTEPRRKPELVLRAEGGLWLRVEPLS

C[C@H](O)CNC(=O)CCc1cccc(COc2ccc(-c3ccn[nH]3)nc2)c1 [Example 43-9]
IC50 (human CYP4A11; [1]): 0.13 µM | IC50 (human CYP4F2; [2]): 0.073 µM

CC(C)(CCNC(=O)c1cc(COc2ccc(-c3ccn[nH]3)nc2)ccn1)C(=O)O [Example 45-15]
IC50 (human CYP4A11; [1]): 1.2 µM | IC50 (human CYP4F2; [2]): 0.18 µM

O=C(O)Cc1cccc(COc2ccc(-c3cncs3)nc2)c1 [Example 40-2]
IC50 (human CYP4A11; [3]): 0.0069 µM | IC50 (human CYP4F2; [4]): 8.2 µM

CS(=O)(=O)NC(=O)CCc1cccc(COc2ccc(-c3ccn[nH]3)nc2)c1 [Example 44-5]
IC50 (human CYP4A11; [1]): 0.031 µM | IC50 (human CYP4F2; [2]): 2.7 µM

O=C(O)CCCc1ccc(CCOc2ccc(-c3ccn[nH]3)nc2)cc1 [Example 4-2]
IC50 (human CYP4A11; [3]): 0.25 µM | IC50 (human CYP4F2; [4]): 0.16 µM

O=C(O)C1CC1c1ccc(F)c(CCOc2ccc(-c3ccn[nH]3)nc2)c1 (single isomer, unassigned) [Example 74-7]
IC50 (human CYP4A11; [1]): 0.078 µM | IC50 (human CYP4F2; [2]): 1.3 µM

O=C(O)C1CN(S(=O)(=O)c2cccc(COc3ccc(-c4ccn[nH]4)nc3)c2)CCO1 (centres unmarked) [Example 22-12]
IC50 (human CYP4A11; [3]): 0.053 µM | IC50 (human CYP4F2; [4]): 2 µM

O=C(O)Cn1cc(CCCCOc2ccc(-c3ccn[nH]3)nc2)cn1 [Example 8-12]
IC50 (human CYP4A11; [3]): 0.1 µM | IC50 (human CYP4F2; [4]): 5 µM

O=C(O)C1CC1c1ccc(CCOc2ccc(-c3ccn[nH]3)nc2)c(F)c1 (centres unmarked) [Example 71-16]
IC50 (human CYP4A11; [1]): 0.19 µM | IC50 (human CYP4F2; [2]): 0.091 µM

O=C(O)C1CCC(COc2ccc(-c3ccn[nH]3)nc2)CC1 (centres unmarked) [Example 1-42]
IC50 (human CYP4A11; [3]): 0.052 µM | IC50 (human CYP4F2; [4]): 25 µM

CC[C@@H](OCCCCCCCOc1ccc(-c2ccn[nH]2)nc1)C(=O)O [Example 71-2-1]
IC50 (human CYP4A11; [1]): 0.17 µM | IC50 (human CYP4F2; [2]): 0.3 µM

O=C(O)C1(CCCCOc2ccc(-c3ccn[nH]3)nc2)CCCC1 [Example 1-34]
IC50 (human CYP4A11; [3]): 0.038 µM | IC50 (human CYP4F2; [4]): 1.8 µM

O=C(O)c1cnc(-c2cccc(COc3ccc(-c4ccn[nH]4)nc3)c2)cn1 [Example 18-4]
IC50 (human CYP4A11; [3]): 0.022 µM | IC50 (human CYP4F2; [4]): 0.49 µM

CNC(=O)c1cccc(COc2ccc(-c3ccn[nH]3)nc2)c1 [Example 42-1, N-Methyl-3-[[6-(1H-pyrazol-5-yl)-3-pyridinyl]oxymethyl]benzamide]
IC50 (human CYP4A11; [3]): 0.42 µM | IC50 (human CYP4F2; [4]): 0.076 µM

CC(C)(COc1cc(CCCOc2ccc(-c3ccn[nH]3)nc2)ccn1)C(=O)O [Example 71-43]
IC50 (human CYP4A11; [1]): 0.87 µM | IC50 (human CYP4F2; [2]): 0.25 µM

O=C(O)C1CCN(S(=O)(=O)c2cccc(COc3ccc(-c4ccn[nH]4)nc3)c2)C1 (centres unmarked) [Example 22-10]
IC50 (human CYP4A11; [3]): 0.024 µM | IC50 (human CYP4F2; [4]): 2 µM

O=C(O)CCc1cccc(COc2ccc(-c3ccn[nH]3)nc2)c1F [Example 70-2, 3-[2-Fluoro-3-[[6-(1H-pyrazol-5-yl)pyridin-3-yl]oxymethyl]phenyl]propanoic Acid]
IC50 (human CYP4A11; [1]): 0.028 µM | IC50 (human CYP4F2; [2]): 1.1 µM

Cc1cc(OCC23CCC(C(=O)O)(CC2)CC3)cnc1-c1ccn[nH]1 [Example 1-22]
IC50 (human CYP4A11; [3]): 0.038 µM | IC50 (human CYP4F2; [4]): > 50 µM

O=C(O)/C=C/c1cccc(CCOc2ccc(-c3ccn[nH]3)nc2)c1 [Example 70-4]
IC50 (human CYP4A11; [1]): 0.15 µM | IC50 (human CYP4F2; [2]): 0.056 µM

O=C(Cc1cccc(COc2ccc(-c3ccn[nH]3)nc2)c1)NCCO [Example 42-7]
IC50 (human CYP4A11; [3]): 0.76 µM | IC50 (human CYP4F2; [4]): 1.1 µM

O=C(O)c1cncc(-c2cccc(COc3ccc(-c4ccn[nH]4)nc3)c2)c1 [Example 31-4]
IC50 (human CYP4A11; [3]): 0.012 µM | IC50 (human CYP4F2; [4]): 0.39 µM

O=C(O)c1cnn(CCCCOc2ccc(-c3ccn[nH]3)nc2)c1 [Example 15-3]
IC50 (human CYP4A11; [3]): 0.13 µM | IC50 (human CYP4F2; [4]): 6.3 µM

O=C(O)C1(Cc2ccc(CCOc3ccc(-c4ccn[nH]4)nc3)cc2)CC1 [Example 74-1]
IC50 (human CYP4A11; [1]): 0.13 µM | IC50 (human CYP4F2; [2]): 1.1 µM

CC(C)(COc1cc(CCOc2ccc(-c3ccn[nH]3)nc2)ccn1)C(=O)O [Example 71-35]
IC50 (human CYP4A11; [1]): 1.4 µM | IC50 (human CYP4F2; [2]): 1.9 µM

CC[C@H](OCCCCCCCOc1ccc(-c2ccn[nH]2)nc1)C(=O)O [Example 71-2-2]
IC50 (human CYP4A11; [1]): 0.087 µM | IC50 (human CYP4F2; [2]): 0.09 µM

O=C(O)CCC(=O)N1CCC[C@@H](COc2ccc(-c3ccn[nH]3)nc2)C1 [Example 1-24]
IC50 (human CYP4A11; [3]): 0.17 µM | IC50 (human CYP4F2; [4]): 15 µM

O=C(O)C12CCC(C(=O)N3CCC[C@@H](COc4ccc(-c5ccn[nH]5)nc4)C3)(CC1)CC2 [Example 46-4]
IC50 (human CYP4A11; [3]): 1 µM | IC50 (human CYP4F2; [4]): 18 µM

O=C(O)C1CC2CCC(C1)N2C(=O)c1cccc(COc2ccc(-c3ccn[nH]3)nc2)c1 (centres unmarked) [Example 45-33]
IC50 (human CYP4A11; [1]): 2 µM | IC50 (human CYP4F2; [2]): 19 µM

O=C(O)CCC(=O)N1CCC[C@H](COc2ccc(-c3ccn[nH]3)nc2)C1 [Example 1-23]
IC50 (human CYP4A11; [3]): 0.32 µM | IC50 (human CYP4F2; [4]): 20 µM

O=C(O)c1ccc(CCCCOc2ccc(-c3ccn[nH]3)nc2)cn1 [Example 29-4]
IC50 (human CYP4A11; [3]): 0.042 µM | IC50 (human CYP4F2; [4]): 0.24 µM

O=C(O)C1CC1c1cccc(CCOc2ccc(-c3ccn[nH]3)nc2)c1F (centres unmarked) [Example 74-3]
IC50 (human CYP4A11; [1]): 0.088 µM | IC50 (human CYP4F2; [2]): 0.06 µM

O=C(O)C12CCC(COc3ccc(-c4[nH]ncc4Cl)nc3)(CC1)CC2 [Example 1-20]
IC50 (human CYP4A11; [3]): 0.016 µM | IC50 (human CYP4F2; [4]): 9.2 µM

OC(Cc1cccc(COc2ccc(-c3ccn[nH]3)nc2)c1)C(F)(F)F (centres unmarked) [Example 59-1, 1,1,1-Trifluoro-3-[3-[[6-(1H-pyrazol-5-yl)-3-pyridinyl]oxymethyl]phenyl]-2-propanol]
IC50 (human CYP4A11; [3]): 0.13 µM | IC50 (human CYP4F2; [4]): 0.01 µM

O=C(O)c1ccc(CCCCCOc2ccc(-c3ccn[nH]3)nc2)cn1 [Example 71-29]
IC50 (human CYP4A11; [1]): 0.11 µM | IC50 (human CYP4F2; [2]): 0.26 µM

O=C(O)C(F)(F)c1cccc(COc2ccc(-c3ccn[nH]3)nc2)c1 [Example 60-1, 2,2-Difluoro-2-[3-[[6-(1H-pyrazol-5-yl)-3-pyridinyl]oxymethyl]phenyl]acetic Acid]
IC50 (human CYP4A11; [3]): 0.0082 µM | IC50 (human CYP4F2; [4]): 37 µM

O=C(O)[C@H]1CCCN1C(=O)c1cccc(COc2ccc(-c3ccn[nH]3)nc2)c1 [Example 45-35]
IC50 (human CYP4A11; [1]): 3.2 µM | IC50 (human CYP4F2; [2]): 13 µM

O=C(O)CCc1ccc(COc2ccc(-c3ccn[nH]3)nc2)cc1 [Example 1-3]
IC50 (human CYP4A11; [3]): 0.079 µM | IC50 (human CYP4F2; [4]): 0.22 µM

O=C(O)C1(C(=O)NCCCCCCOc2ccc(-c3ccn[nH]3)nc2)CCCC1 [Example 3-9]
IC50 (human CYP4A11; [3]): 0.24 µM | IC50 (human CYP4F2; [4]): 0.43 µM

OC(c1ccc(COc2ccc(-c3ccn[nH]3)nc2)cc1)C(F)(F)F (centres unmarked) [Example 59-3]
IC50 (human CYP4A11; [3]): 1.5 µM | IC50 (human CYP4F2; [4]): 0.041 µM

CC(C)(Cc1ccc(CCOc2ccc(-c3ccn[nH]3)nc2)cn1)C(=O)O [Example 71-28]
IC50 (human CYP4A11; [1]): 1.6 µM | IC50 (human CYP4F2; [2]): 6.2 µM

O=C(O)C1(CCCCOc2ccc(-c3ccn[nH]3)nc2)CCC1 [Example 1-33]
IC50 (human CYP4A11; [3]): 0.074 µM | IC50 (human CYP4F2; [4]): 15 µM

CCCNC(=O)CCc1cccc(COc2ccc(-c3ccn[nH]3)nc2)c1 [Example 42-10]
IC50 (human CYP4A11; [3]): 0.046 µM | IC50 (human CYP4F2; [4]): 0.015 µM

O=C(CCc1cccc(COc2ccc(-c3ccn[nH]3)nc2)c1)NC[C@H]1CCCO1 [Example 43-13]
IC50 (human CYP4A11; [1]): 0.048 µM | IC50 (human CYP4F2; [2]): 0.021 µM

COc1cc(COc2ccc(-c3ccn[nH]3)nc2)ccc1C(=O)O [Example 22-17, 2-Methoxy-4-[[6-(1H-pyrazol-5-yl)-3-pyridinyl]oxymethyl]benzoic Acid]
IC50 (human CYP4A11; [3]): 0.062 µM | IC50 (human CYP4F2; [4]): 19 µM

O=C(O)c1cncc(-c2cccc(COc3ccc(-c4ccn[nH]4)nc3)c2)n1 [Example 18-3]
IC50 (human CYP4A11; [3]): 0.024 µM | IC50 (human CYP4F2; [4]): 0.51 µM

O=C(O)C1CCc2ccc(CCOc3ccc(-c4ccn[nH]4)nc3)cc2O1 (centres unmarked) [Example 71-21, 7-[2-[6-(1H-Pyrazol-5-yl)pyridin-3-yl]oxyethyl]-3,4-dihydro-2H-chromene-2-carboxylic Acid]
IC50 (human CYP4A11; [1]): 0.33 µM | IC50 (human CYP4F2; [2]): 0.19 µM
